Measurements from patent publication US8314269B2, “N-(1-methyl-2phenylethyl)benzamide derivatives” (Bayer Cropscience AG, priority 2005, dated 2012).

Test system: Pyrenophora teres
Assay: In vivo test on Pyrenophora teres (barley net blotch)
Details: 500 ppm, preventive spray on barley plants (Express), grading 12 days after contamination vs control plants
Protocol: The active ingredients tested are prepared by homogenisation in a mixture of acetone/tween/DMSO, then diluted with water to obtain the desired active material concentration.
Barley plants (Express variety), sown on a 50/50 peat soil-pozzolana substrate in starter cups and grown at 12° C., are treated at the 1-leaf stage (10 cm tall) by spraying with the active ingredient prepared as described above. Plants, used as controls, are treated with the mixture of acetone/tween/DMSO/water not containing the active material.
After 24 hours, the plants are contaminated by spraying them with an aqueous suspension of Pyrenophora teres spores (12,000 spores per ml). The spores are collected from a 12-day-old culture. The contaminated barley plants are incubated for 24 hours at about 20° C. and at 100% relative humidity, and then for 12 days at 80% relative humidity.
Grading is carried out 12 days after the contamination, in comparison with the control plants.

CC(Cc1ccc(Cl)cc1)NC(=O)c1ccccc1C(F)(F)F (stereo not shown) [Compound 1]
protection: at least 70%
